Laboratory results: ChEMBL document CHEMBL1671688, “Raltegravir penetration in seminal plasma of healthy volunteers” (Antimicrob Agents Chemother, 2010)

How the values were obtained:
Type in all cases: ADME, organism-based
[1] = Ratio of drug level in semen to blood in healthy human at […] administered twice daily measured 5 hrs post dosing by HPLC; conditions: male
[2] = Drug level in blood of healthy human at […] administered twice daily measured on day 5 by HPLC; conditions: read-out: Drug uptake
[3] = Ratio of drug level in semen to blood in healthy human at […] administered twice daily measured after 2 to 4 hrs by HPLC; conditions: male
[4] = Drug level in semen of healthy human at […] administered twice daily measured on day 5 by HPLC; conditions: male, read-out: Drug uptake
[5] = Drug level in semen of healthy human at […] administered twice daily measured after 2 to 4 hrs by HPLC; conditions: in vivo
Blood = test: Drug level in blood of healthy human at […] administered twice daily measured after 2 to 4 hrs by HPLC; conditions: in vivo
[6] = Drug level in semen of healthy human at […] administered twice daily measured 5 hrs post dosing by HPLC; conditions: male, read-out: Drug uptake
[7] = Ratio of drug level in semen to blood in healthy human at […] administered twice daily measured on day 5 by HPLC; conditions: male

Cc1nnc(C(=O)NC(C)(C)c2nc(C(=O)NCc3ccc(F)cc3)c(O)c(=O)n2C)o1 [RALTEGRAVIR]
Kp at 5 h [1]: 1.42
concentration at 5 day [2]: 51 ng/mL
Kp [3]: 1.62
concentration at 5 day [4]: 212 ng/mL
Drug uptake [5]: 953 ng/mL
Drug uptake (Blood): 651 ng/mL
concentration at 5 h [6]: 345 ng/mL
Kp at 5 day [7]: 3.78
